This is an account of results in US20110039847A1, “AMIDE DERIVATIVES AS SIRTUIN MODULATORS” (Sirtris Pharmaceuticals, Inc, priority 2007, published 2011).

In this test the target is T1, SIRT1 (Homo sapiens, UniProt Q96EB6).
T1 sequence (Q96EB6 1-747): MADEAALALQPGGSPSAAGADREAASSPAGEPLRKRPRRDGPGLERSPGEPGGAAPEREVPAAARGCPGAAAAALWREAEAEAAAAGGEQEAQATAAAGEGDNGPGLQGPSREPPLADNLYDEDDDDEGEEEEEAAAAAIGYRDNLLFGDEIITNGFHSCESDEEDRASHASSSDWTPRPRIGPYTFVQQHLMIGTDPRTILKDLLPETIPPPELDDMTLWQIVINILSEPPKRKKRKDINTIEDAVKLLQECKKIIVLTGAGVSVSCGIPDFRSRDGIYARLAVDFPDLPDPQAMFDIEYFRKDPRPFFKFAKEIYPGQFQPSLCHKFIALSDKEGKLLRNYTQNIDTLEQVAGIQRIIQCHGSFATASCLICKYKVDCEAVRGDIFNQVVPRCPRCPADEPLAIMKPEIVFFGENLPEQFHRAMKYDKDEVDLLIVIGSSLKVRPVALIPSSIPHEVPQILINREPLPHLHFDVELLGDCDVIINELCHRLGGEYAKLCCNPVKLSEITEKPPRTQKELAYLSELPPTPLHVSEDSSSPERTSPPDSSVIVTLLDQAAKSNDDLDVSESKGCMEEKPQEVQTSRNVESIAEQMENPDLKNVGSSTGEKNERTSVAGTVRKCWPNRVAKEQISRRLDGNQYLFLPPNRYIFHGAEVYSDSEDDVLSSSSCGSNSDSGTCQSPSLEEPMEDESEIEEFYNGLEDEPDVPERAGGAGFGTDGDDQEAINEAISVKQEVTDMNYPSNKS
Briefly: Mass spectrometry based SIRT1 deacetylation (activation) assay. The test is classed as biochemical. The conditions noted are these: 0.5 μM peptide substrate, 120 μM βNAD+, 10 nM SIRT1, 25 min at 25° C.; for Emax: 25 min, read-out: % Fold Act. (percent maximum fold activation). From the text: A mass spectrometry based assay was used to identify modulators of SIRT1 activity. The mass spectrometry based assay utilizes a peptide having 20 amino acid residues as follows: Ac-EE-K(biotin)-GQSTSSHSK(Ac)NleSTEG-K(5TMR)-EE-NH2 (SEQ ID NO: 1) wherein K(Ac) is an acetylated lysine residue and Nle is a norleucine. The peptide is labeled with the fluorophore 5TMR (excitation 540 nm/emission 580 nm) at the C-terminus. The sequence of the peptide substrate is based on p53 with several modifications. In addition, the methionine residue naturally present in the sequence was replaced with the norleucine because the methionine may be susceptible to oxidation during synthesis and purification.
The mass spectrometry assay is conducted as follows: 0.5 μM peptide substrate and 120 μM βNAD^+ is incubated with 10 nM SIRT1 for 25 minutes at 25° C. in a reaction buffer (50 mM Tris-acetate pH 8, 137 mM NaCl, 2.7 mM KCl, 1 mM MgCl2, 5 mM DTT, 0.05% BSA). Test compounds may be added to the reaction as described above. […] After the 25 minute incubation with SIRT1, 10 μL of 10% formic acid is added to stop the reaction. Reactions are sealed and frozen for later mass spec analysis. Determination of the mass of the substrate peptide allows for precise determination of the degree of acetylation (i.e. starting material) as compared to deacetylated peptide (product).
A control for inhibition of sirtuin activity is conducted by adding 1 μL of 500 mM nicotinamide as a negative control at the start of the reaction (e.g., permits determination of maximum sirtuin inhibition). A control for activation of sirtuin activity is conducted using 10 nM of sirtuin protein, with 1 μL of DMSO in place of compound, to determine the amount of deacetylation of the substrate at a given timepoint within the linear range of the assay. This timepoint is the same as that used for test compounds and, within the linear range, the endpoint represents a change in velocity.
For the above assay, SIRT1 protein was expressed and purified as follows. […] The protein was expressed by induction with 1 mM IPTG as an N-terminal His-tag fusion protein at 18° C. overnight and harvested at 30,000×g. Cells were lysed with lysozyme in lysis buffer (50 mM Tris-HCl, 2 mM Tris[2-carboxyethyl]phosphine (TCEP), 10 μM ZnCl2, 200 mM NaCl) and further treated with sonication for 10 min for complete lysis. The protein was purified over a Ni-NTA column (Amersham) and fractions containing pure protein were pooled, concentrated and run over a sizing column (Sephadex S200 26/60 global). The peak containing soluble protein was collected and run on an Ion-exchange column (MonoQ). Gradient elution (200 mM-500 mM NaCl) yielded pure protein. This protein was concentrated and dialyzed against dialysis buffer (20 mM Tris-HCl, 2 mM TCEP) overnight. The protein was aliquoted and frozen at −80° C. until further use.

Consider `CCc1ccccc1NC(=O)c1cc(NCCN(C)C)nc(-c2ccccc2)n1` [Compound 1], for which the EC1.5 result is given as “C (EC1.5>10 uM)” and the Emax fell in the range of 150 to 300%.
In the case of `CN(C)CCNc1cc(C(=O)Nc2ccccc2-c2ccccc2)nc(-c2ccccc2)n1` [Compound 2], the EC1.5 entry was “C (EC1.5>10 uM)” and the Emax was less than 150%.
On to `CN(C)CCNc1cc(C(=O)Nc2ccccc2C(N)=O)nc(-c2ccccc2)n1` [Compound 3], for which the EC1.5 result is “B (EC1.5>1 and ≦10 uM)”; the Emax is not below 300%.
Consider `CN(C)CCNc1cc(C(=O)Nc2ccccc2C#N)nc(-c2ccccc2)n1` [Compound 4], for which the EC1.5 entry was “B (EC1.5>1 and ≦10 uM)”; the Emax fell in the range of 150 to 300%.
As to `COC(=O)c1ccccc1NC(=O)c1cc(NCCN(C)C)nc(-c2ccccc2)n1` [Compound 5], the EC1.5 entry is recorded as “A (EC1.5≦1 uM)” and the Emax was not below 300%.
As for `CN(C)CCNc1cc(C(=O)Nc2ccccc2)nc(-c2ccccc2)n1` [Compound 6], the EC1.5 result was “C (EC1.5>10 uM)” and the Emax fell in the range of 150 to 300%.
With `Cc1csc(-c2ccccc2NC(=O)c2cc(NCCN(C)C)nc(-c3ccccc3)n2)n1` [Compound 7], the EC1.5 entry is “B (EC1.5>1 and ≦10 uM)”; the Emax was not below 300%.
For `CN(C)CCNc1cc(C(=O)Nc2ccccc2-c2nccs2)nc(-c2ccccc2)n1` [Compound 8], the EC1.5 entry is given as “A (EC1.5≦1 uM)” and the Emax is not below 300%.
In the case of `CN(C)CCNc1cc(C(=O)Nc2ccccc2-c2ccncc2)nc(-c2ccccc2)n1` [Compound 10], the EC1.5 result is “B (EC1.5>1 and ≦10 uM)”; the Emax fell in the range of 150 to 300%.
For `CN(C)CCNc1cc(C(=O)Nc2ccccc2-c2cccnc2)nc(-c2ccccc2)n1` [Compound 11], the EC1.5 entry was “B (EC1.5>1 and ≦10 uM)”; the Emax is 150 to 300%.
As for `CN(C)CCNc1cc(C(=O)Nc2ccccc2-c2csc(-c3ccccc3)n2)nc(-c2ccccc2)n1` [Compound 12], the EC1.5 entry is “B (EC1.5>1 and ≦10 uM)”; the Emax is 150 to 300%.
Regarding `CN(C)CCNc1cc(C(=O)Nc2ccccc2-c2ncc(-c3ccccc3)s2)nc(-c2ccccc2)n1` [Compound 13], the EC1.5 result is “A (EC1.5≦1 uM)” and the Emax was 150 to 300%.
As for `CN(C)CCNc1cc(C(=O)Nc2ccccc2-c2nc(-c3ccccc3)cs2)nc(-c2ccccc2)n1` [Compound 14], the EC1.5 entry was “B (EC1.5>1 and ≦10 uM)”; the Emax was 150 to 300%.
With `CN(C)CCNc1cc(C(=O)Nc2ccccc2-c2c[nH]c(-c3ccccc3)n2)nc(-c2ccccc2)n1` [Compound 15], the EC1.5 result was “A (EC1.5≦1 uM)” and the Emax was not below 300%.
Take `CN(C)CCNc1cc(C(=O)Nc2ccccc2-c2ccco2)nc(-c2ccccc2)n1` [Compound 16]: the EC1.5 result is “B (EC1.5>1 and ≦10 uM)”; the Emax was not below 300%.
With `O=C(Nc1ccccc1-c1ncc(-c2ccccc2)s1)c1cc(NCCN2CCCCC2)nc(-c2ccccc2)n1` [Compound 17], the EC1.5 entry was “A (EC1.5≦1 uM)” and the Emax was in the range of 150 to 300%.
Regarding `O=C(Nc1ccccc1-c1ncc(-c2ccccc2)s1)c1cc(N2CCNCC2)nc(-c2ccccc2)n1` [Compound 18], the EC1.5 entry was “A (EC1.5≦1 uM)” and the Emax was in the range of 150 to 300%.
Regarding `O=C(Nc1ccccc1-c1ncc(-c2ccccc2)s1)c1cc(NCCN2CCCC2)nc(-c2ccccc2)n1` [Compound 19], the EC1.5 result is “A (EC1.5≦1 uM)” and the Emax was in the range of 150 to 300%.
Consider `Cc1nnc(-c2ccccc2NC(=O)c2cc(NCCN(C)C)nc(-c3ccccc3)n2)o1` [Compound 20], for which the EC1.5 result is “B (EC1.5>1 and ≦10 uM)”; the Emax is not below 300%.
As for `Cc1nnc(-c2ccccc2NC(=O)c2cc(NCCN(C)C)nc(-c3ccccc3)n2)s1` [Compound 21], the EC1.5 entry is “A (EC1.5≦1 uM)” and the Emax was in the range of 150 to 300%.
With `Cc1cnc(-c2ccccc2NC(=O)c2cc(NCCN(C)C)nc(-c3ccccc3)n2)s1` [Compound 22], the EC1.5 result is “B (EC1.5>1 and ≦10 uM)”; the Emax is not below 300%.
